Source: patent US10189809B2, “SGC stimulators” (Ironwood Pharmaceuticals, Inc., priority 2010, dated 2019)
Read-outs that look alike come from different tables or passages of the source.

What was measured:
[1] = target: T1, Human soluble guanylate cyclase enzyme (hsGC) (Homo sapiens (Human), UniProt Q02108+Q02153); experiment: Purified human sGC enzyme synergy assay in the presence of 1 μM sodium nitroprusside (SNP); assay type: biochemical; settings: for sGC Enzyme (fold increase at 30 μM with SNP): 30 μM compound
T1 sequence (Q02153 whole entry): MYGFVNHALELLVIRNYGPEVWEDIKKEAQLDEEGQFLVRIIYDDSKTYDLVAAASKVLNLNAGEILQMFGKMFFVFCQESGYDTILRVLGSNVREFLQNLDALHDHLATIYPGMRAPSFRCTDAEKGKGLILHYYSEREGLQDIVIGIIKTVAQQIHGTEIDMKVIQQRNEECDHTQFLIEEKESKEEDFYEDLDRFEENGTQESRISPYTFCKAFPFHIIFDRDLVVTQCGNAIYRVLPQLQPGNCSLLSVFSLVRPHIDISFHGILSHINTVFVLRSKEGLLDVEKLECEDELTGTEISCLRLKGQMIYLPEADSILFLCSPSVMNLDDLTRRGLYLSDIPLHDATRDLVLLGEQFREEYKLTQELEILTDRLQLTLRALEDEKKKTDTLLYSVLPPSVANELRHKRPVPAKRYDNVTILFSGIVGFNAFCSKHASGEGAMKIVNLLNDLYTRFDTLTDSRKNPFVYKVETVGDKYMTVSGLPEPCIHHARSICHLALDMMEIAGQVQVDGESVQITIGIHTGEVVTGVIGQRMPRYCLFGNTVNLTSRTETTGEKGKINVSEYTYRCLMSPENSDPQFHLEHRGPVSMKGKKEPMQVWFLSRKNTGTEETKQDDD
T1 sequence (Q02108 whole entry): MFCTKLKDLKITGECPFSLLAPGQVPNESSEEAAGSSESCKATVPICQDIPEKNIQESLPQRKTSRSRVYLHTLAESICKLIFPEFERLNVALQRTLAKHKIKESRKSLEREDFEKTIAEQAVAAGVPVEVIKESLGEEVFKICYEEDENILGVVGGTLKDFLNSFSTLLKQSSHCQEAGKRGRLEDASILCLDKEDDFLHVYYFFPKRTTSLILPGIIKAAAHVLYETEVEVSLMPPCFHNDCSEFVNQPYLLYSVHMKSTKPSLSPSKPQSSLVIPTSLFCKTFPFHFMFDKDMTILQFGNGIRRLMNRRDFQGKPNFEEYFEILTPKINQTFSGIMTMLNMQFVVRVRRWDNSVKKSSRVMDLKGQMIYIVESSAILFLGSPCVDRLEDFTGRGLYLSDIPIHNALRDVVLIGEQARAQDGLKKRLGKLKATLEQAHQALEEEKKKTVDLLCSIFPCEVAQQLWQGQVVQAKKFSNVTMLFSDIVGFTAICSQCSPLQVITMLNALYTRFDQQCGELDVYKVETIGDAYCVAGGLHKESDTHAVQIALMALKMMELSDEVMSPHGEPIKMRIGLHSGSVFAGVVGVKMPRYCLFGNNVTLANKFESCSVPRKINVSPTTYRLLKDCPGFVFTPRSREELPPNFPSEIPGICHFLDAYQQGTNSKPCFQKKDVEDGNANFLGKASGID
How it was run: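 Purified human sGC (5 ng) incubated 30 min at 37 °C with compounds at 10 or 30 μM, 1 μM sodium nitroprusside, 300 μM GTP and 1 mM IBMX in Tris pH 8.0 with MgCl2/DTT. cGMP quantified against a standard curve, and specific activity expressed as fold-change over DMSO control.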

[2] = target: T1, Human soluble guanylate cyclase enzyme (hsGC); experiment: Purified human sGC enzyme activity assay; assay type: biochemical
How it was run: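 Purified human sGC (5 ng) incubated 30 min at 37° C with compound at 10 or 30 μM final in pH 8.0 Tris with 300 μM GTP, 2 mM MgCl2, 2 mM DTT and 1 mM IBMX, then stopped with cold methanol. cGMP quantified against a standard curve. Specific activity (nmol cGMP/mg sGC/min) expressed as fold-change over DMSO control.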

[3] = tested on: Thoracic aortic rings; experiment: Alternative thoracic aortic rings assay (Example 19b; resting tension as 100% inhibition); set-up: species or system rat; settings: Table 10A; for Percent Relaxation at 1 μM: printed as number or words instead of code; for inhibition at 3 µM / inhibition at 10 µM / EC50 / inhibition at 1 µM: Rattus norvegicus; for inhibition at 3 µM: read-out: Percent Relaxation at 3 μM; for inhibition at 10 µM: read-out: Percent Relaxation at 10 μM; for EC50: read-out: Aortic Ring EC50; for inhibition at 1 µM: read-out: Percent Relaxation at 1 μM
How it was run: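 Aortic rings (~2 mm) from male Sprague-Dawley rats (275-299 g) held at 1.0 g resting tension in Krebs-Henseleit at 37 °C under 95% O2/5% CO2, then precontracted with 100 ng/mL phenylephrine. Compounds in DMSO added cumulatively; relaxation recorded by force transducer and EC50 taken from concentration-response curves.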

[4] = target: soluble guanylate cyclase (sGC) (Homo sapiens (Human), UniProt Q02108+Q02153); experiment: sGC-HEK-cGMP assay run with SNP incubation (HEK WC assay); assay type: cell-based
soluble guanylate cyclase (sGC), sequence (Q02153 whole entry): as the sequence (Q02153 whole entry) above
soluble guanylate cyclase (sGC), sequence (Q02108 whole entry): as the sequence (Q02108 whole entry) above
How it was run: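 HEK293 cells with endogenous sGC were pretreated with 0.5 mM IBMX for 15 min at 37 °C, then exposed to test compound plus sodium nitroprusside for 10 min at 37 °C.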

[5] = 30 μM compound, without the addition of SNP
[6] = read-out: HEK WC Assay (% Emax at 10 μM/with 10 uM SNP)
[7] = read-out: HEK WC Assay (% Emax at 30 μM/with 10 uM SNP)

SMILES | sGC Enzyme (fold increase at 30 μM with SNP) ([1]; with the addition of SNP) | sGC Enzyme (fold increase at 30 μM) [2, 5] | Percent Relaxation at 1 μM [3] | inhibition at 3 µM ([3]; 3 μM) [%] | inhibition at 10 µM [3] [%] | Emax at 10 µM [4, 6] [%] | Emax at 30 µM [4, 7] [%] | Percent Relaxation at 3 μM ([3]; 3 μM, printed as words instead of code) | EC50 [3] [nM] | inhibition at 1 µM [3] [%] | sGC Enzyme (fold increase at 10 μM) ([2]; 10 μM compound, without the addition of SNP) | sGC Enzyme (fold increase at 10 μM with SNP) ([1]; 10 μM compound, with 1 μM SNP) | sGC Enzyme (fold increase at 30 μM with SNP) ([1]; with 1 μM SNP) | sGC Enzyme (specific activity at 10 μM) ([2]; 10 μM compound) | sGC Enzyme (fold increase at 10 μM without SNP) ([2]; 10 μM compound, without SNP) | sGC Enzyme (specific activity at 30 μM) ([2]; 30 μM compound) | sGC Enzyme (fold increase at 30 μM without SNP) ([2]; 30 μM compound, without SNP) | Emax at 10 µM ([4]; read-out: HEK WC Assay (% Emax at 10 uM/with 10 uM SNP)) [%] | Emax at 30 µM ([4]; read-out: HEK WC Assay (% Emax at 30 uM/with 10 uM SNP)) [%]
COC(=O)Nc1c(N)nc(-c2cc(-c3ccsc3)n(Cc3ccccc3F)n2)nc1N [Compound I-71] | D (D = 10 to <30 fold increase) | C (C = 5 to <10 fold increase) | No relaxation | 10 to 20 | 60 to 80 | 10 to 20 | 10 to 20 | – | – | – | – | – | – | – | – | – | – | – | –
COC(=O)N(C)c1c(N)nc(-c2cc(-c3ccccc3)n(Cc3ccccc3F)n2)nc1N [Compound I-84] | B (B = 2 to <5 fold increase) | C (C = 5 to <10 fold increase) | no relaxation | – | 20 to 40 | – | – | no relaxation | 8000 to 12000 | – | – | – | – | – | – | – | – | – | –
Nc1nc(-c2cc(-c3ccon3)n(Cc3ccccc3F)n2)ncc1-c1ccncc1 [Compound I-102] | C (C = 5 to <10 fold increase) | B (B = 2 to <5 fold increase) | – | 60 to 80 | 80 to 100 | 40 to 60 | 20 to 40 | – | < 2000 | 20 to 40 | – | – | – | – | – | – | – | – | –
Nc1ccnc(-c2cc(-c3ncco3)n(Cc3ccccc3F)n2)n1 [Compound I-87] | D (D = 10 to <30 fold increase) | D (D = 10 to <30 fold increase) | – | 80 to 100 | 100 to 120 | 60 to 80 | 100 to 120 | – | < 2000 | 60 to 80 | – | – | – | – | – | – | – | – | –
Nc1ccnc(-c2cc(-c3ccccc3)n(Cc3ccccc3F)n2)n1 [Compound I-82] | C (C = 5 to <10 fold increase) | C (C = 5 to <10 fold increase) | – | 20 to 40 | 80 to 100 | 10 to 20 | 10 to 20 | – | 4000 to 8000 | 10 to 20 | – | – | – | – | – | – | – | – | –
COC(=O)Nc1c(N)nc(-c2cc(-c3ccccc3)n(Cc3ccccc3F)n2)nc1N [Compound I-83] | C (C = 5 to <10 fold increase) | D (D = 10 to <30 fold increase) | – | 20 to 40 | 60 to 80 | – | – | – | 4000 to 8000 | 10 to 20 | – | – | – | – | – | – | – | – | –
Nc1ccnc(-c2cc(-c3ccon3)n(Cc3ccccc3F)n2)n1 [Compound I-97] | D (D = 10 to <30 fold increase) | D (D = 10 to <30 fold increase) | – | 100 to 120 | 100 to 120 | 40 to 60 | 40 to 60 | – | < 2000 | 80 to 100 | – | – | – | – | – | – | – | – | –
CN(C(=O)OC(C)(C)C)c1cnc(-c2cc(-c3ccon3)n(Cc3ccccc3F)n2)nc1N [Compound I-115] | D (D = 10 to <30 fold increase) | C (C = 5 to <10 fold increase) | – | 40 to 60 | 80 to 100 | 80 to 100 | 60 to 80 | – | 2000 to 4000 | 20 to 40 | – | – | – | – | – | – | – | – | –
Fc1ccccc1Cn1nc(-c2ncccn2)cc1-c1cscn1 [Compound I-85] | D (D = 10 to <30 fold increase) | C (C = 5 to <10 fold increase) | – | 80 to 100 | 100 to 120 | – | 100 to 120 | – | < 2000 | 60 to 80 | – | – | – | – | – | – | – | – | –
Fc1ccccc1Cn1nc(-c2ncccn2)cc1-c1ccccn1 [Compound I-75] | D (D = 10 to <30 fold increase) | B (B = 2 to <5 fold increase) | – | 20 to 40 | 60 to 80 | 10 to 20 | 20 to 40 | – | 2000 to 4000 | 10 to 20 | A (A = no increase to <2 fold increase) | – | – | – | – | – | – | – | –
COC(=O)N(C)c1cnc(-c2cc(-c3ccon3)n(Cc3ccccc3F)n2)nc1N [Compound I-105] | C (C = 5 to <10 fold increase) | C (C = 5 to <10 fold increase) | – | 80 to 100 | 100 to 120 | 80 to 100 | 100 to 120 | – | < 2000 | 60 to 80 | – | – | – | – | – | – | – | – | –
Nc1ccnc(-c2cc(-c3nccs3)n(Cc3ccccc3F)n2)n1 [Compound I-86] | D (D = 10 to <30 fold increase) | C (C = 5 to <10 fold increase) | – | 80 to 100 | 100 to 120 | 40 to 60 | 60 to 80 | – | < 2000 | 40 to 60 | – | – | – | – | – | – | – | – | –
COC(=O)N(C)c1c(N)nc(-c2cc(-c3ncco3)n(Cc3ccccc3F)n2)nc1N [Compound I-100] | C (C = 5 to <10 fold increase) | B (B = 2 to <5 fold increase) | – | 60 to 80 | 100 to 120 | 20 to 40 | 40 to 60 | – | < 2000 | 20 to 40 | – | – | – | – | – | – | – | – | –
N#Cc1cnc(-c2cc(-c3ccon3)n(Cc3ccccc3F)n2)nc1O [Compound I-110] | C (C = 5 to <10 fold increase) | B (B = 2 to <5 fold increase) | – | 60 to 80 | 80 to 100 | 60 to 80 | 60 to 80 | – | < 2000 | 40 to 60 | – | – | – | – | – | – | – | – | –
CC(C)(C)OC(=O)Nc1cnc(-c2cc(-c3ccon3)n(Cc3ccccc3F)n2)nc1N [Compound I-106] | D (D = 10 to <30 fold increase) | D (D = 10 to <30 fold increase) | – | 60 to 80 | 100 to 120 | – | – | – | < 2000 | 20 to 40 | – | – | – | – | – | – | – | – | –
Fc1ccccc1Cn1nc(-c2ncccn2)cc1-c1ncccn1 [Compound I-13] | – | – | – | – | – | – | – | – | – | – | – | A (A = no increase to <2 fold increase) | A (A = no increase to <2 fold increase) | B (B = 50 to <100) | A (A = no increase to <2 fold increase) | C (C = 100 to <200) | A (A = no increase to <2 fold increase) | 0 to 10 | 0 to 10
